Data: PubChem BioAssay AID2060488 (Molecular Pharmacology Branch, DTP, NCI, 2025)

Test system: 966289-007-R4-J1-PDC complex spheroid viability
Test: Anticancer human tumor 966289-007-R4-J1-PDC patient-derived pancreatic adenocarcinoma cell line growth inhibition [GQUAD]
Conditions: for IC50: curve of first compound; for viability, T/C: stronger effect = lower value
Source text: DNA G-quadruplex Stabilizer Agents in Combinations in Complex Spheroids
A high-throughput screen of multi-cell type tumor spheroids was designed to identify active combinations of DNA G-quadruplex stabilizer agents and targeted small molecules. Complex spheroids include a stromal component modeled by human endothelial cells (HUVEC) and fibroblasts modeled by human mesenchymal stem cells (MSCs). The concentration ranges selected for each drug and investigational agent were based upon clinically achievable concentrations if the clinical Cmax of the agent was known.
Compounds. The drugs and investigational agents: pidnarulex (CX-5461; NSC782164), APTO-253 (NSC789042), BRACO-19 (NSC847499), peposertib (NSC802822), ceralasertib (NSC780249), elimusertib (NSC800525), camonsertib (NSC841442), AZD-1390 (NSC803789), olaparib (NSC753686), talazoparib (NSC767125), ART-558 (NSC835418), sotorasib (NSC818433), MRTX-1133 (NSC836407), SN-38 (NSC673596), topotecan (NSC609699), etoposide (NSC141540), doxorubicin (NSC123127), gemcitabine (NSC613327), 5-fluorouracil (NSC19893), paclitaxel (NSC125973), vemurafenib (NSC761431), panobinostat (NSC761190), R-306465 (JNJ-16241199; NSC773264), adavosertib (NSC754352), TP-3654 (NSC805149), carboplatin (NSC241240), KSQ-4279 (NSC840948), and staurosporine (NSC755774) were obtained from the National Cancer Institute (NCI) Developmental Therapeutics Program Chemical Repository (34). The FDA-approved anticancer drug set is available from the NCI Developmental Therapeutics Program. […] The stock solutions were prepared in dimethyl sulfoxide (DMSO, Sigma-Aldrich, St. Louis, MO, cat. D2650) at 800-fold the tested concentration and stored at -70 degrees C prior to their use. All drugs and investigational agents were tested over a range starting from a high concentration at or near the clinical Cmax and decreasing in half-log increments. If the clinical Cmax for an agent had not been determined, the highest concentration tested was 10 microM.
2.3 Cell Culture. All cells were maintained in an incubator at 37 degrees C and 5% CO2 with 95% humidity. The PDC lines were cultured according to standard operating procedures established by the NCI PDMR. All PDCs were thawed and cultured in Matrigel-coated flasks prepared with a working solution of 1X Ham's F-12 nutrient mix, without supplementation (Invitrogen, cat. 11765054), 100 U/mL penicillin-streptomycin (Invitrogen, cat. 15140122), and 2.5% Matrigel (Corning Inc., cat. 354248) for the first three passages. The 857933-349-R-J2-PDC line was cultured in 6C/Colon 1B media, which includes advanced DMEM/F-12 (Thermo Fisher Scientific, cat. 12634028), 10 mM HEPES (Thermo Fisher Scientific, cat. 15630080), 1X GlutaMAX supplement (Thermo Fisher Scientific, cat. 35050061), 0.1 mg/mL primocin (InvivoGen, cat. ant-pm-2), 10% defined fetal bovine serum, heat inactivated (HyClone Laboratories Inc., cat. SH30070.03HI), 50% L-WRN conditioned media (ATCC, cat. CRL-3276), 1.25 mM N-Acetyl-L-cysteine (Sigma-Aldrich, cat. A9165), 10 mM nicotinamide (Sigma-Aldrich, cat. N0636), 1X B-27 supplement (Thermo Fisher Scientific, cat. 17504044), 1X N-2 supplement (Thermo Fisher Scientific, cat. 17502048), 10 microM Y-27632 dihydrochloride (Tocris Bioscience, cat. 1254), and 50 ng/mL human EGF recombinant protein (Thermo Fisher Scientific, cat. PHG0311). The 485176-168-R4-J1-PDC line was cultured in Panc media, which includes all 6C/Colon 1B media components plus 100 ng/mL human FGF-10 (Thermo Fisher Scientific, cat. 100-26), 500 nM SB-431542 (Selleckchem, cat. S1067), and gastrin (Tocris, cat. 3006).
[…]

[1] = second compound 0.0316 µM, first compound 0.0316 µM
[2] = second compound 0.0316 µM, first compound 0.1 µM
[3] = second compound 0.0316 µM, first compound 0.316 µM
[4] = second compound 0.0316 µM, first compound 1 µM
[5] = second compound 0.0316 µM, first compound 3.16 µM
[6] = second compound 0.0316 µM, first compound 10 µM
[7] = second compound 0.1 µM, first compound 0.0316 µM
[8] = second compound 0.1 µM, first compound 0.1 µM
[9] = second compound 0.1 µM, first compound 0.316 µM
[10] = second compound 0.1 µM, first compound 1 µM
[11] = second compound 0.1 µM, first compound 3.16 µM
[12] = second compound 0.1 µM, first compound 10 µM
[13] = second compound 0.316 µM, first compound 0.0316 µM
[14] = second compound 0.316 µM, first compound 0.1 µM
[15] = second compound 0.316 µM, first compound 0.316 µM
[16] = second compound 0.316 µM, first compound 1 µM
[17] = second compound 0.316 µM, first compound 3.16 µM
[18] = second compound 0.316 µM, first compound 10 µM
[19] = second compound 1 µM, first compound 0.0316 µM
[20] = second compound 1 µM, first compound 0.1 µM
[21] = second compound 1 µM, first compound 0.316 µM
[22] = second compound 1 µM, first compound 1 µM
[23] = second compound 1 µM, first compound 3.16 µM
[24] = second compound 1 µM, first compound 10 µM
[25] = second compound 3.16 µM, first compound 0.0316 µM
[26] = second compound 3.16 µM, first compound 0.1 µM
[27] = second compound 3.16 µM, first compound 0.316 µM
[28] = second compound 3.16 µM, first compound 1 µM
[29] = second compound 3.16 µM, first compound 3.16 µM
[30] = second compound 3.16 µM, first compound 10 µM
[31] = second compound 10 µM, first compound 0.0316 µM
[32] = second compound 10 µM, first compound 0.1 µM
[33] = second compound 10 µM, first compound 0.316 µM
[34] = second compound 10 µM, first compound 1 µM
[35] = second compound 10 µM, first compound 3.16 µM
[36] = second compound 10 µM, first compound 10 µM
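Further: spheroids exposed to the agents for seven days before readout.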
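Wherever viability, T/C is given: percent viability relative to DMSO vehicle control wells taken as 100%.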

With `CC1COCCN1c1cc(-c2ccnn2C)c2ccnc(-c3ccn[nH]3)c2n1` (centres undefined) + CN(C)c1ccc(Nc2c3ccc(NC(=O)CCN4CCCC4)cc3nc3cc(NC(=O)CCN4CCCC4)ccc23)cc1 the IC50 (second compound 0.0316 µM) was 213 nM, the IC50 (second compound 0.1 µM) was 228 nM and the IC50 (second compound 0.316 µM) was 214 nM. It also gave an IC50 (second compound 1 µM) of 240 nM, an IC50 (second compound 3.16 µM) of 217 nM and an IC50 (second compound 10 µM) of 143 nM. For the same molecule, the viability, T/C [1] was 113%, the viability, T/C [2] was 88.9% and the viability, T/C [3] was 29.1%. It also gave a viability, T/C [4] of 11.2%, a viability, T/C [5] of 6.12% and a viability, T/C [6] of 3.97%. For the same molecule, the viability, T/C [7] was 113%, the viability, T/C [8] was 97.5% and the viability, T/C [9] was 30.8%. For the same molecule, the viability, T/C [10] was 10.2%, the viability, T/C [11] was 5.52% and the viability, T/C [12] was 4.49%. For the same molecule, the viability, T/C [13] was 108%, the viability, T/C [14] was 89.6% and the viability, T/C [15] was 29.3%. For the same molecule, the viability, T/C [16] was 11%, the viability, T/C [17] was 5.87% and the viability, T/C [18] was 4.36%. The viability, T/C [19] was 107%, the viability, T/C [20] was 96.2% and the viability, T/C [21] was 35.1%. For the same molecule, the viability, T/C [22] was 10.6%, the viability, T/C [23] was 4.68% and the viability, T/C [24] was 4.37%. It also gave a viability, T/C [25] of 110%, a viability, T/C [26] of 94.3% and a viability, T/C [27] of 28.2%. The viability, T/C [28] was 10.7%, the viability, T/C [29] was 6.99% and the viability, T/C [30] was 5.79%. It also gave a viability, T/C [31] of 103%, a viability, T/C [32] of 64.3% and a viability, T/C [33] of 18.2%. It also gave a viability, T/C [34] of 9.04%, a viability, T/C [35] of 5.74% and a viability, T/C [36] of 4.94%.
With `CC1COCCN1c1cc(C2(O)CC3CCC(C2)O3)c2cnn(-c3ccn[nH]3)c2n1` (centres undefined) + CN(C)c1ccc(Nc2c3ccc(NC(=O)CCN4CCCC4)cc3nc3cc(NC(=O)CCN4CCCC4)ccc23)cc1 the IC50 (second compound 0.0316 µM) was 176 nM, the IC50 (second compound 0.1 µM) was 177 nM and the IC50 (second compound 0.316 µM) was 176 nM. It also gave an IC50 (second compound 1 µM) of 167 nM, an IC50 (second compound 3.16 µM) of 147 nM and an IC50 (second compound 10 µM) of 74.1 nM. For the same molecule, the viability, T/C [1] was 116%, the viability, T/C [2] was 75.1% and the viability, T/C [3] was 24.1%. The viability, T/C [4] was 8.6%, the viability, T/C [5] was 5.79% and the viability, T/C [6] was 5.95%. For the same molecule, the viability, T/C [7] was 112%, the viability, T/C [8] was 81.4% and the viability, T/C [9] was 18.1%. The viability, T/C [10] was 8.59%, the viability, T/C [11] was 5.93% and the viability, T/C [12] was 5.58%. It also gave a viability, T/C [13] of 109%, a viability, T/C [14] of 75.8% and a viability, T/C [15] of 23.1%. The viability, T/C [16] was 9%, the viability, T/C [17] was 5.73% and the viability, T/C [18] was 5.87%. It also gave a viability, T/C [19] of 103%, a viability, T/C [20] of 74.3% and a viability, T/C [21] of 19.6%. For the same molecule, the viability, T/C [22] was 8.84%, the viability, T/C [23] was 6.93% and the viability, T/C [24] was 4.89%. For the same molecule, the viability, T/C [25] was 104%, the viability, T/C [26] was 65.6% and the viability, T/C [27] was 19.1%. For the same molecule, the viability, T/C [28] was 8.61%, the viability, T/C [29] was 6.25% and the viability, T/C [30] was 4.79%. It also gave a viability, T/C [31] of 86.3%, a viability, T/C [32] of 37.3% and a viability, T/C [33] of 12.7%. It also gave a viability, T/C [34] of 6.7%, a viability, T/C [35] of 6.68% and a viability, T/C [36] of 3.1%.
